Assay results: DBAASP
Values after ≈ are worked out from the molar mass of the structure shown. One block for each compound: values may come before it.

Experiments:
Test in all cases: ≥ marks a high value that may be exact or a test limit, other limits are often not marked, values filed in µg/mL are converted to µM
[1] = system: Candida albicans ATCC 10231
[2] = system: Burkholderia thailandensis
[3] = system: Bacillus anthracis Sterne 34F2
[4] = system: Bacillus subtilis ATCC 9372
[5] = system: Klebsiella pneumoniae ATCC 13883
[6] = system: Staphylococcus aureus ATCC 29213
[7] = system: Staphylococcus aureus NCTC 10788
[8] = system: Candida albicans NCYC 1467
[9] = system: Batrachochytrium dendrobatidis
[10] = system: Escherichia coli ATCC 25726
[11] = system: Staphylococcus aureus ATCC 25923
[12] = system: Escherichia coli ATCC 25922
[13] = system: Candida albicans ATCC 20032
[14] = system: Bacillus subtilis ATCC 6633
Salmonella typhimurium = system: Salmonella typhimurium
Staphylococcus aureus = system: Staphylococcus aureus
[15] = system: Salmonella enterica subsp. enterica serovar Enteritidis
Bacillus megaterium = system: Bacillus megaterium
[16] = system: Staphylococcus haemolyticus
Enterobacter cloacae = system: Enterobacter cloacae
Klebsiella pneumoniae = system: Klebsiella pneumoniae
Escherichia coli B = system: Escherichia coli B
[17] = system: Salmonella typhimurium KCTC 1926
[18] = system: Bacillus subtilis KCTC 1918
[19] = system: Streptococcus pyogenes KCTC 3096
[20] = system: Pseudomonas aeruginosa KCTC 1637
[21] = system: Staphylococcus aureus KCTC 1621
[22] = system: Escherichia coli KCTC 1682
[23] = system: Legionella pneumophila Lens
[24] = system: Shigella flexneri ATCC 203
[25] = system: Staphylococcus aureus JC-1
Bacillus megaterium Bm11 = system: Bacillus megaterium Bm11
Escherichia coli D21 = system: Escherichia coli D21
[26] = system: Staphylococcus aureus Cowan 1
[27] = system: Proteus vulgaris OX19 ATCC 6380
[28] = system: Pseudomonas aeruginosa OT97

- MIC [7]: 4.42 µM (≈ 8 µg/mL)
- MIC [8]: 17.7 µM (≈ 32 µg/mL)
- MIC [9]: ≥ 100 µM
- MIC [10]: ≥ 128 µM
- MIC [11]: 8 µM (≈ 14.5 µg/mL)
Compound: CC[C@H](C)[C@H](NC(=O)[C@H](C)NC(=O)[C@H](CO)NC(=O)[C@@H](NC(=O)[C@H](C)NC(=O)[C@H](CC(C)C)NC(=O)[C@@H]1CCCN1C(=O)[C@@H](NC(=O)[C@H](CCSC)NC(=O)CNC(=O)[C@H](CC(C)C)NC(=O)[C@@H](N)CC(C)C)[C@@H](C)CC)[C@@H](C)CC)C(=O)N[C@@H](CO)C(=O)N[C@@H](C)C(=O)N[C@@H](CC(C)C)C(=O)N[C@@H](CO)C(=O)N[C@@H](CCCCN)C(=O)N[C@@H](CC(C)C)C(N)=O [LLGMIPLAISAISALSKL]

- MIC (Staphylococcus aureus): 100 µM (≈ 140 µg/mL)
- MIC [9]: ≥ 100 µM
Compound: CC[C@H](C)[C@H](NC(=O)[C@H](C)NC(=O)[C@H](CO)NC(=O)[C@@H](NC(=O)[C@@H](N)Cc1ccccc1)[C@@H](C)CC)C(=O)N[C@@H](C)C(=O)N[C@@H](CO)C(=O)N[C@@H](CCSC)C(=O)N[C@@H](CC(C)C)C(=O)NCC(=O)N[C@@H](CCCCN)C(=O)N[C@@H](Cc1ccccc1)C(=O)N[C@@H](CC(C)C)C(N)=O [FISAIASMLGKFL]

- MIC [14]: ≥ 800 µM
- MIC [24]: ≥ 800 µM
- MIC [25]: ≥ 800 µM
- MIC (Bacillus megaterium Bm11): ≥ 1600 µM
- MIC (Escherichia coli D21): ≥ 3200 µM
- MIC [26]: ≥ 6000 µM
- MIC [27]: ≥ 6000 µM
- MIC [28]: ≥ 6000 µM
Compound: CC[C@H](C)[C@H](NC(=O)[C@H](CCCCN)NC(=O)[C@@H](NC(=O)[C@@H](NC(=O)[C@H](CCC(N)=O)NC(=O)CNC(=O)[C@H](Cc1cnc[nH]1)NC(=O)[C@H](CCC(N)=O)NC(=O)[C@H](CC(N)=O)NC(=O)[C@H](CCC(N)=O)NC(=O)[C@@H](NC(=O)[C@@H](N)CCCCN)C(C)C)C(C)C)C(C)C)C(=O)N[C@@H](Cc1ccccc1)C(=O)N[C@@H](Cc1cnc[nH]1)C(=O)N[C@@H](Cc1cnc[nH]1)C(=O)O [KVQNQHGQVVKIFHH]

Second part, the compound before the results:

Compound: CC[C@H](C)[C@H](NC(=O)[C@H](C)NC(=O)[C@@H](N)C(C)C)C(=O)N[C@@H](C)C(=O)N[C@@H](CC(C)C)C(=O)N[C@@H](CCCCN)C(=O)N[C@@H](C)C(=O)N[C@@H](C)C(=O)N[C@@H](Cc1cnc[nH]1)C(=O)N[C@@H](Cc1ccc(O)cc1)C(=O)N[C@@H](Cc1cnc[nH]1)C(=O)N[C@H](C(=O)N[C@@H](Cc1cnc[nH]1)C(=O)N[C@@H](CCCCN)C(=O)N[C@@H](CCC(=O)O)C(=O)O)[C@@H](C)O [VAIALKAAHYHTHKE]
- MIC [1]: 0.592 µM (≈ 1 µg/mL)
- MIC [2]: ≥ 50 µM
- MIC [3]: ≥ 100 µM
- MIC [4]: ≥ 100 µM
- MIC [5]: ≥ 75.8 µM
- MIC [6]: 75.8 µM (≈ 128 µg/mL)

Compound: CC[C@H](C)[C@H](N)C(=O)N[C@@H](CC(C)C)C(=O)NCC(=O)N1CCC[C@H]1C(=O)N[C@H](C(=O)N[C@@H](CC(C)C)C(=O)NCC(=O)N[C@@H](CC(C)C)C(=O)N[C@@H](CC(=O)O)C(=O)NCC(=O)N[C@@H](CC(N)=O)C(=O)N[C@@H](C)C(=O)N[C@@H](CC(C)C)C(=O)NCC(=O)NCC(=O)N[C@@H](CC(C)C)C(=O)N[C@H](C(=O)N[C@@H](CCCCN)C(=O)N[C@@H](CCCCN)C(=O)N[C@H](C(N)=O)[C@@H](C)CC)[C@@H](C)CC)C(C)C [ILGPVLGLDGNALGGLIKKI]
- MIC [12]: > 51 µM
- MIC [13]: ≥ 51 µM
- MIC [14]: ≥ 51 µM
- MIC [11]: > 51 µM

Compound: CC[C@H](C)[C@H](NC(=O)[C@@H](NC(=O)[C@@H]1CCCN1C(=O)[C@@H](NC(=O)[C@@H](NC(=O)[C@H](CCCN=C(N)N)NC(=O)[C@@H]1CCCN1C(=O)[C@@H](NC(=O)[C@@H](NC(=O)[C@H](Cc1cnc[nH]1)NC(=O)[C@H](CCCCN)NC(=O)[C@H](C)NC(=O)[C@@H](NC(=O)[C@H](CO)NC(=O)CNC(=O)[C@H](CC(C)C)NC(=O)[C@@H](NC(=O)[C@H](CO)NC(=O)[C@H](Cc1ccccc1)NC(=O)[C@H](CC(C)C)NC(=O)CN)C(C)C)C(C)C)C(C)C)C(C)C)C(C)C)C(C)C)C(C)C)C(=O)N[C@@H](C)C(=O)N[C@@H](CCC(=O)O)C(=O)N[C@@H](Cc1cnc[nH]1)C(=O)N[C@@H](CC(C)C)C(N)=O [GLFSVLGSVAKHVVPRVVPVIAEHL]
- MIC (Salmonella typhimurium): ≥ 100 µM
- MIC (Staphylococcus aureus): > 100 µM
- MIC [15]: ≥ 100 µM
- MIC (Bacillus megaterium): ≥ 100 µM
- MIC [16]: ≥ 50 µM
- MIC (Enterobacter cloacae): ≥ 50 µM
- MIC (Klebsiella pneumoniae): 25 µM (≈ 65.6 µg/mL)
- MIC (Escherichia coli B): 25 µM (≈ 65.6 µg/mL)

Compound: CC[C@H](C)[C@H](NC(=O)[C@H](CCCCN)NC(=O)[C@H](CCCCN)NC(=O)[C@H](Cc1ccccc1)NC(=O)[C@H](CC(C)C)NC(=O)[C@H](CCCCN)NC(=O)[C@H](Cc1c[nH]c2ccccc12)NC(=O)[C@@H](N)CCCCN)C(=O)NCC(=O)N1CCC[C@H]1C(=O)NCC(=O)N[C@@H](CCCCN)C(=O)N[C@@H](Cc1ccccc1)C(=O)N[C@@H](CC(C)C)C(=O)N[C@@H](Cc1cnc[nH]1)C(=O)N[C@@H](CO)C(=O)N[C@@H](C)C(=O)N[C@@H](CCCCN)C(=O)N[C@@H](CCCCN)C(=O)N[C@@H](Cc1ccccc1)C(N)=O [KWKLFKKIGPGKFLHSAKKF]
- MIC [17]: 0.78 µM (≈ 1.86 µg/mL)
- MIC [18]: 0.78 µM (≈ 1.86 µg/mL)
- MIC [19]: 0.78 µM (≈ 1.86 µg/mL)
- MIC [20]: 0.78 µM (≈ 1.86 µg/mL)
- MIC [21]: 3.12 µM (≈ 7.46 µg/mL)
- MIC [22]: 3.12 µM (≈ 7.46 µg/mL)

Compound: CC[C@H](C)[C@H](NC(=O)CN)C(=O)NCC(=O)NCC(=O)N[C@H](C(=O)N[C@@H](CC(C)C)C(=O)N[C@@H](CC(C)C)C(=O)NCC(=O)N[C@@H](C)C(=O)NCC(=O)N[C@@H](CCCCN)C(=O)N[C@@H](C)C(=O)N[C@H](C(=O)N[C@@H](CC(C)C)C(=O)N[C@@H](CCCCN)C(=O)NCC(=O)N[C@@H](CC(C)C)C(=O)N[C@@H](C)C(=O)N[C@@H](CCCCN)C(=O)N[C@H](C(=O)N[C@@H](CC(C)C)C(=O)N[C@@H](C)C(=O)N[C@@H](CCC(=O)O)C(=O)N[C@@H](CCCCN)C(=O)N[C@@H](Cc1ccc(O)cc1)C(=O)N[C@@H](C)C(=O)N[C@@H](CC(N)=O)C(N)=O)C(C)C)[C@@H](C)O)C(C)C [GIGGVLLGAGKATLKGLAKVLAEKYAN]
- MIC [12]: > 38.3 µM
- MIC [13]: ≥ 38.3 µM
- MIC [14]: ≥ 38.3 µM
- MIC [11]: 7.19 µM (≈ 18.8 µg/mL)

Compound: CC[C@H](C)[C@H](NC(=O)[C@H](CC(C)C)NC(=O)[C@H](CC(=O)O)NC(=O)[C@@H](NC(=O)[C@@H](NC(=O)[C@H](Cc1ccccc1)NC(=O)[C@H](CCC(N)=O)NC(=O)[C@@H](N)CCSC)[C@@H](C)CC)[C@@H](C)O)C(=O)NCC(=O)N[C@@H](CCCCN)C(=O)N[C@@H](C)C(=O)N[C@H](C(=O)N[C@@H](CC(=O)O)C(=O)N[C@@H](Cc1ccccc1)C(=O)N[C@@H](Cc1ccccc1)C(=O)N[C@@H](CCCCN)C(=O)NCC(=O)N[C@@H](CC(C)C)C(=O)N[C@@H](Cc1ccccc1)C(=O)N[C@@H](CC(=O)O)C(=O)N[C@@H](CC(N)=O)C(=O)N[C@@H](CCCCN)C(=O)O)C(C)C [MQFITDLIGKAVDFFKGLFDNK]
- MIC [23]: 19.6 µM (≈ 49.9 µg/mL)
